Results as given in US12617783B2, “Heterocyclic GLP-1R agonists” (BIOMEA FUSION, INC., priority 2024, dated 2026).
Like-named read-outs stand apart in the source and are kept apart here.

Assays:
human GLP-1R [1] = target: T1, human GLP-1R (Homo sapiens, UniProt P43220); assay: GLP-1R cAMP assay (Example B1a, HTRF, 30 min at room temperature); format: cell-based; conditions: for EC50 Ratio: potency ratio of stereoisomer pair (less potent / more potent isomer)
T1 construct: host or cells: HEK293
How it was run: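 Competitive HTRF read-out of cAMP after 30 min room-temperature stimulation, BETP absent, of human GLP-1R-HEK293 cells (1,000/well) in HEPES buffer with 500 μM IBMX and 0.1% BSA. Activation normalised to GLP-1(7-37) positive control. EC50 from 4-parameter non-linear regression.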

[2] = Pharmacokinetic analysis in male SD rats; format: in vivo; conditions: for Oral F: 5.0 mg/kg po vs 1.0 mg/kg iv; for AUC(0-inf) / clearance / half-life / Vd / Cmax / Tmax: Sprague-Dawley (SD), rat, plasma; for Vd: read-out: Vdss; for exposure compared with Orforglipron: same doses (iv 1 mg/kg and po 5 mg/kg)
Description: The rats have free access to food and water. Blood samples were collected pre-dose and 0.083, 0.25, 0.5, 1, 2, 4, 8, 24 hours post dose for i.v. administration group. Blood samples were also collected pre-dose and 0.25, 0.5, 1, 2, 4, 8, and 24 hours after administration in orally dosing group.

[3] = male, cynomolgus monkey, in vivo
Description: (§1) Pharmacokinetic Analysis of the Compound 36, Compound 121, Compound 214, and Orforglipron in Cynomolgus Monkeys
(§2) Non naïve male cynomolgus monkeys (n=3 monkeys/group) were fasted overnight and fed 4 hours post dose. Compounds of the present application were formulated in 10% polyethylene glycol 400/10% propylene glycol/80% glycine buffer (100 mM glycine, 64 mM NaOH, pH 10).
(§3) The compound was administered by i.v. infusion for 30 minutes at 0.12 mg/kg (dose volume 1 mL/kg at a speed of 2 mL/kg/h) or orally doses of 0.36 mg/kg. Blood samples were collected pre-dose and 0.25, 0.5 (just before the infusion is stopped), 0.75, 1, 1.5, 2.5, 4, 8, 16, 24 hr post dose for i.v. administration group. Blood samples were also collected pre-dose, 0.5, 1, 2, 3, 4, 8, 16 and 24 hr after administration in orally dosing group.

in vivo = conditions: male, cynomolgus monkey
Description: as §1, §2, §3

[4] = test system: islets from a non-diabetic donor; assay: Glucose-stimulated insulin secretion (GSIS) in non-diabetic donor islets cultured ex vivo; format: cell-based; conditions: compared with orforglipron or DMSO
Description: Donor islets cultured ex vivo were assayed for GSIS in the presence of compound 36 (cpd 36), orforglipron or DMSO. Basal insulin secretion, stimulated insulin secretion and secretion index were measured.
Donor islets cultured ex vivo were assayed for GSIS in the presence of compound 214, orforglipron or DMSO. Basal insulin secretion, stimulated insulin secretion and secretion index were measured.

human GLP-1R [5] = target: T1, human GLP-1R; assay: GLP-1R cAMP assay (Example B1b, HTRF, 30 min at 37°); format: cell-based; conditions: cAMP accumulation in HEK293 expressing human GLP-1R, no BETP, 30 min at 37° (Method B1b), Table 1
How it was run: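 HEK293 cells expressing human GLP-1R, at 1,000/well in HEPES buffer with 500 μM IBMX and 0.1% BSA, were given serially diluted compounds without BETP for 30 min at 37°. cAMP was measured by competitive HTRF (665/620 ratio) and normalised to GLP-1(7-37) as positive control. EC50 from 4-parameter fit.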

[6] = Pharmacokinetic analysis in cynomolgus monkeys
Description: as §1, §2, §3

[7] = Table 1d, stereoisomer pairs, read-out: EC50
[8] = cAMP accumulation in HEK293 expressing human GLP-1R, no BETP, 30 min room temperature (Method B1a, compounds ID 1-609), Table 1, read-out: EC50
[9] = text to Table 1d, bridge atoms configured into the plane or away from the reader, read-out: potency (EC50)
[10] = male, cynomolgus monkey, plasma, iv, 0.12 mg/kg
[11] = male, cynomolgus monkey, plasma, po, 0.36 mg/kg

T1 sequence (P43220 24-463): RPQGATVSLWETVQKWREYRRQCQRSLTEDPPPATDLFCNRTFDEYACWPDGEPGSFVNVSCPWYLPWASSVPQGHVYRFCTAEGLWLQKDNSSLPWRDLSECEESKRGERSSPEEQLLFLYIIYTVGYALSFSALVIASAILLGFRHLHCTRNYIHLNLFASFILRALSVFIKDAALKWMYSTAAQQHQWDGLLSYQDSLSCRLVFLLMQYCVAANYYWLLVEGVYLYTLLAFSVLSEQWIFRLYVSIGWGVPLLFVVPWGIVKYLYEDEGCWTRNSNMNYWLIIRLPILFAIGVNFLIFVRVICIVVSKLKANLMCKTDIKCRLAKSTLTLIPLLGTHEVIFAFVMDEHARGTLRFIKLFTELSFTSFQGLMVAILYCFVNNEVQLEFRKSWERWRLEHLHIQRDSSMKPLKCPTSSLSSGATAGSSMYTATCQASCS

Row | Compound | EC50 Ratio (human GLP-1R [1]; Table 1d) | EC50 (human GLP-1R [1]; [7]) | EC50 (human GLP-1R [1]; [8]) | EC50 (human GLP-1R [1]; [9]) | Oral F [2] | AUC(0-inf) ([2]; 1.0 mg/kg iv) | clearance ([2]; 1.0 mg/kg iv) | half-life ([2]; 1.0 mg/kg iv) | Vd ([2]; 1.0 mg/kg iv) | AUC(0-inf) ([2]; 5.0 mg/kg po) | Cmax ([2]; 5.0 mg/kg po) | Tmax ([2]; 5.0 mg/kg po) | half-life ([2]; 5.0 mg/kg po) | exposure compared with Orforglipron [2] | Oral F [3] | AUC(0-inf) (in vivo; iv, 0.12 mg/kg) | Vd (in vivo; iv, 0.12 mg/kg) | clearance (in vivo; iv, 0.12 mg/kg) | half-life (in vivo; iv, 0.12 mg/kg) | AUC(0-inf) (in vivo; po, 0.36 mg/kg) | further results
1 | Cc1cc(-n2nc3c(c2-n2ccn(-c4ccc5c(cnn5C)c4F)c2=O)[C@@H]2COC[C@H](C3)N2C(=O)c2cc3cc([C@H]4CCOC(C)(C)C4)ccc3n2[C@@]2(c3noc(=O)[nH]3)C[C@@H]2C)cc(C)c1F [Compound 121, 3-((1S,2S)-1-(5-((S)-2,2-dimethyltetrahydro-2H-pyran-4-yl)-2-((4R,8S)-3-(3-(4-fluoro-1-methyl-1H-indazol-5-yl)-2-oxo-2,3-dihydro-1H-imidazol-1-yl)-2-(4-fluoro-3,5-dimethylphenyl)-2,4,5,7,8,9-hexahydro-4,8-epiminooxocino [5,4-c]pyrazole-10-carbonyl)-1H-indol-1-yl)-2-methylcyclopropyl)-1,2,4-oxadiazol-5 (4H)-one] | >122 | 82 nM | 82 nM | < 1000 nM | 54.7% | 3330 ng·h/mL | 5.02 mL/min/kg | 3.14 h | 1.24 L/kg | 9120 ng·h/mL | 923 ng/mL | 3.33 h | 3.47 h | significant higher exposure | 22.2% | 182 ng·h/mL | 1.66 L/kg | 11.4 mL/min/kg | 2.26 h | 121 ng·h/mL | Cmax (in vivo; po, 0.36 mg/kg): 28 ng/mL; Tmax (in vivo; po, 0.36 mg/kg): 2 h; half-life (in vivo; po, 0.36 mg/kg): 1.94 h
2 | Cc1cc(-n2nc3c(c2-n2ccn(-c4ccc5c(cnn5C)c4F)c2=O)[C@@H]2CC[C@H](C3)N2C(=O)c2cc3cc([C@H]4CCOC5(CC5)C4)ccc3n2[C@@]2(c3noc(=O)[nH]3)C[C@@H]2C)cc(C)c1F [Compound 214, 3-((1S,2S)-1-(2-((4S,7R)-3-(3-(4-fluoro-1-methyl-1H-indazol-5-yl)-2-oxo-2,3-dihydro-1H-imidazol-1-yl)-2-(4-fluoro-3,5-dimethylphenyl)-2,4,5,6,7,8-hexahydro-4,7-epiminocyclohepta [c]pyrazole-9-carbonyl)-5-((S)-4-oxaspiro[2.5]octan-7-yl)-1H-indol-1-yl)-2-methylcyclopropyl)-1,2,4-oxadiazol-5 (4H)-one] | >13 | 52.3 nM | 52.3 nM | < 1000 nM | 32.6% | 4640 ng·h/mL | 3.68 mL/min/kg | 4.83 h | 1.08 L/kg | 7510 ng·h/mL | 640 ng/mL | 2.67 h | 5.14 h | significant higher exposure | 54.0% | 619 ng·h/mL | 0.77 L/kg | 3.4 mL/min/kg | 3.66 h | 1000 ng·h/mL | glucose-stimulated insulin secretion in islets from a non-diabetic donor [4]: increases in glucose-stimulated insulin secretion; Cmax (in vivo; po, 0.36 mg/kg): 149 ng/mL; Tmax (in vivo; po, 0.36 mg/kg): 2 h; half-life (in vivo; po, 0.36 mg/kg): 3.56 h
3 | Cc1cc(-n2nc3c(c2-n2ccn(-c4ccc5c(cnn5C5CC5)c4F)c2=O)[C@@H]2COC[C@H](C3)N2C(=O)c2cc3cc(C4CCOCC4)ccc3n2[C@@]2(c3noc(=O)[nH]3)C[C@@H]2C)cc(C)c1F [Compound 715, 3-((1S,2S)-1-(2-((4R,8S)-3-(3-(1-cyclopropyl-4-fluoro-1H-indazol-5-yl)-2-oxo-2,3-dihydro-1H-imidazol-1-yl)-2-(4-fluoro-3,5-dimethylphenyl)-2,4,5,7,8,9-hexahydro-4,8-epiminooxocino [5,4-c]pyrazole-10-carbonyl)-5-(tetrahydro-2H-pyran-4-yl)-1H-indol-1-yl)-2-methylcyclopropyl)-1,2,4-oxadiazol-5 (4H)-one] |  |  |  |  |  |  |  |  |  |  |  |  |  |  |  |  |  |  |  |  | EC50 (human GLP-1R [5]): 0.004 µM
4 | Cc1cc(-n2nc3c(c2-n2ccn(-c4ccc5c(cnn5C)c4F)c2=O)[C@@H]2CC[C@H](C3)N2C(=O)c2cc3cc(C4CCOC(C)(C)C4)c(F)cc3n2[C@@]2(c3noc(=O)[nH]3)C[C@@H]2C)cc(C)c1F (stereo partly drawn) [Compound 716, 3-[(1S,2S)-1-[5-(2,2-dimethyltetrahydropyran-4-yl)-6-fluoro-2-[(1S,8R)-4-(4-fluoro-3,5-dimethyl-phenyl)-3-[3-(4-fluoro-1-methyl-indazol-5-yl)-2-oxo-imidazol-1-yl]-4,5,11-triazatricyclo[6.2.1.02,6]undeca-2,5-diene-11-carbonyl]indol-1-yl]-2-methyl-cyclopropyl]-4H-1,2,4-oxadiazol-5-one] |  |  |  |  |  |  |  |  |  |  |  |  |  |  |  |  |  |  |  |  | EC50 (human GLP-1R [5]): 0.005 µM
5 | Cc1cc(-n2nc3c(c2-n2ccn(-c4ccc5c(cnn5C)c4F)c2=O)[C@H](C)N(C(=O)c2cc4cc([C@H]5CCOC(C)(C)C5)ccc4n2[C@@]2(c4noc(=O)[nH]4)C[C@@H]2C)CC3)cc(C)c1F [Orforglipron, orforglipron, reference compound] |  |  |  |  | 11.2% | 6840 ng·h/mL | 2.47 mL/min/kg | 8.13 h | 1.42 L/kg | 3420 ng·h/mL | 240 ng/mL | 4 h | 7.44 h |  |  |  |  |  |  |  | Oral F ([6]; cynomolgus monkeys, 0.36 mg/kg po vs 0.12 mg/kg iv): 29.4%; AUC(0-inf) [6, 10]: 517 ng·h/mL; Vd [6, 10]: 0.846 L/kg; clearance [6, 10]: 3.98 mL/min/kg; half-life [6, 10]: 3.7 h; AUC(0-inf) [6, 11]: 456 ng·h/mL; Cmax [6, 11]: 79.5 ng/mL; Tmax [6, 11]: 1.33 h; half-life [6, 11]: 4.24 h
